Assay results reported in patent US20250154146A1, “PROTEIN DEGRADERS DEVELOPED ON BASIS OF BCL-2 FAMILY PROTEIN LIGAND COMPOUNDS AND USE THEREOF” (ShanghaiTech University, priority 2022, published 2025).

Tests used:
Format in all cases: cell-based
RS4;11 cells = experiment: Thiazolyl blue cell proliferation assay in RS4;11 cells; settings: Homo sapiens, RS4;11 acute lymphoblastic leukemia cells, 48 hours, read-out: IC50 (nM) for inhibiting the proliferation of RS4;11 cells
Description: (§1) The cell lines RS4;11 (human acute lymphocytic leukemia cells), Molt-4 cells (human acute lymphocytic leukemia cells), MV4;11 (human myeloid monocytic leukemia cells), and Light II cells were commercially available or purchased from ATCC (American Type Culture Collection) and routinely cultured according to instructions.
1) Study on the proliferation inhibition effects induced by the compounds of the present disclosure designed based on ABT199/263 against BCL-XL-dependent RS4;11 cells:
(§2) The specific steps were as follows: RS4;11 cells were seeded at a density of 3×10^4 cells/well in 90 μL of serum-containing RPMI-1640 culture medium. DT2216 and the compounds of the present disclosure were added to the cell suspension at corresponding concentration gradients. DT2216 and DMSO were used as positive and vehicle control, respectively. The positive control and negative control were treated with the same treatment method as the compounds of the present disclosure. After treating the cells with the compounds of the present disclosure for 48 hours, thiazole blue solution (5 mg/mL) was added at 10 μL/well to the cell suspension, followed by incubation for 3 hours at 37° C. in an incubator with 5% CO2. Then, triple solution (0.1 g/mL SDS, 5% isopropyl alcohol, 10 mM hydrochloric acid) was added, followed by incubation for 4-6 hours at 37° C. in an incubator with 5% CO2. After confirming that all the crystal violets were dissolved under inverted biological microscopy, the absorbance was measured at 490 nm using an Epoch microplate reader (Biotek Corporation). The growth inhibition of the compounds of the present disclosure on the cells was plotted by GraphPad Prism 8 software, and the IC50 values of the compounds of the present disclosure were calculated therefrom. The experiment had 3 replicates per group and was repeated at least three times.
We conducted dose-dependent experiments on the designed and synthesized compounds of the present disclosure in RS4;11 cells, which are highly sensitive to BCL-XL inhibitors. The cells were treated with 7 different concentrations (starting at the highest concentration of 1000 nM or 100 nM; 10-fold serial dilutions) of the compounds for 48 hours, and then tested using the thiazolyl blue cell proliferation assay.

MV4;11 cells = experiment: Thiazolyl blue cell proliferation assay in MV4;11 cells; settings: Homo sapiens, MV4;11 myeloid monocytic leukemia cells, 48 hours, read-out: IC50 (nM) for inhibiting the proliferation of MV4;11 cells
Description: as §1
2) Study on the proliferation inhibition effects induced by the compounds of the present disclosure designed based on ABT199/263 against BCL-XL-dependent MV4;11 cells:
as §2, with “MV4;11” for “RS4;11”, “2×10^4” for “3×10^4”, “IMDM” for “RPMI-1640”, “µL/well” for “μL/well”

Molt-4 cells = experiment: Thiazolyl blue cell proliferation assay in Molt-4 cells; settings: Homo sapiens, Molt-4 acute lymphocytic leukemia cells, 72 hours, read-out: IC50 (nM) for inhibiting the proliferation of Molt-4 cells
Description: as §1
3) Study on the proliferation inhibition effects induced by the compounds of the present disclosure designed based on ABT199/263 against BCL-XL-dependent Molt-4 cells:
as §2, with “follows: Molt-4” for “follows: RS4;11”, “of 2×10^4” for “of 3×10^4”, “in 180” for “in 90”, “serum-containing RPMI 1640” for “serum-containing RPMI-1640”, “for 72” for “for 48”, “at 20” for “at 10”

In the case of `CC1(C)CCC(CN2CCN(c3ccc(C(=O)NS(=O)(=O)c4ccc(NC[C@H]5CC[C@H](N6CCN(Cc7ccc8c(c7)C(=O)N(C7CCC(=O)NC7=O)C8=O)CC6)CC5)c(S(=O)(=O)C(F)(F)F)c4)c(Oc4cnc5[nH]ccc5c4)c3)CC2)=C(c2ccc(Cl)cc2)C1` (stereo partly drawn) [BCL-03185, 2-((1H-pyrrolo[2,3-b]pyridin-5-yl)oxy)-4-(4-((4′-chloro-5,5-dimethyl-3,4,5,6-tetrahydro-[1,1′-biphenyl]-2-yl)methyl)piperazin-1-yl)-N-((4-((((trans)-4-(4-((2-(2,6-dioxopiperidin-3-yl)-1,3-dioxoisoindolin-5-yl)methyl)piperazin-1-yl)cyclohexyl)methyl)amino)-3-((trifluoromethyl)sulfonyl)phenyl)sulfonyl)benzamide], the IC50 (RS4;11 cells) was < 20 nM, the IC50 (MV4;11 cells) was < 20 nM and the IC50 (Molt-4 cells) was < 10 nM.
With `CC1(C)CCC(CN2CCN(c3ccc(C(=O)NS(=O)(=O)c4ccc(NC[C@H]5CC[C@H](N6CCN(Cc7ccc8c(c7)CN(C7CCC(=O)NC7=O)C8=O)CC6)CC5)c(S(=O)(=O)C(F)(F)F)c4)c(Oc4cnc5[nH]ccc5c4)c3)CC2)=C(c2ccc(Cl)cc2)C1` (stereo partly drawn) [BCL-03179, 2-((1H-pyrrolo[2,3-b]pyridin-5-yl)oxy)-4-(4-((4′-chloro-5,5-dimethyl-3,4,5,6-tetrahydro-[1,1′-biphenyl]-2-yl)methyl)piperazin-1-yl)-N-((4-((((trans)-4-(4-((2-(2,6-dioxopiperidin-3-yl)-1-oxoisoindolin-5-yl)methyl)piperazin-1-yl)cyclohexyl)methyl)amino)-3-((trifluoromethyl)sulfonyl)phenyl)sulfonyl)benzamide] the IC50 (RS4;11 cells) was < 20 nM, the IC50 (MV4;11 cells) was < 20 nM and the IC50 (Molt-4 cells) was < 10 nM.
For `CC1(C)CCC(c2ccc(Cl)cc2)=C(CN2CCN(c3ccc(C(=O)NS(=O)(=O)c4ccc(N[C@H](CCN5CCN(Cc6cc(Br)c7c(c6)C(=O)N(C6CCC(=O)NC6=O)C7)CC5)CSc5ccccc5)c(S(=O)(=O)C(F)(F)F)c4)cc3)CC2)C1` (stereo partly drawn) [BCL-03178, N-((4-(((2R)-4-(4-((7-bromo-2-(2,6-dioxopiperidin-3-yl)-3-oxoisoindolin-5-yl)methyl)piperazin-1-yl)-1-(phenylthio)butan-2-yl)amino)-3-((trifluoromethyl)sulfonyl)phenyl)sulfonyl)-4-(4-((4′-chloro-4,4-dimethyl-3,4,5,6-tetrahydro-[1,1′-biphenyl]-2-yl)methyl)piperazin-1-yl)benzamide], the IC50 (Molt-4 cells) was < 10 nM.
In the case of `CC1(C)CCC(c2ccc(Cl)cc2)=C(CN2CCN(c3ccc(C(=O)NS(=O)(=O)c4ccc(NC[C@H]5CC[C@H](N6CCN(Cc7ccc8c(c7)CN(C7CCC(=O)NC7=O)C8=O)CC6)CC5)c(S(=O)(=O)C(F)(F)F)c4)cc3)CC2)C1` (stereo partly drawn) [BCL-03180, 4-(4-((4′-chloro-4,4-dimethyl-3,4,5,6-tetrahydro-[1,1′-biphenyl]-2-yl)methyl)piperazin-1-yl)-N-((4-((((trans)-4-(4-((2-(2,6-dioxopiperidin-3-yl)-1-oxoisoindolin-5-yl)methyl)piperazin-1-yl)cyclohexyl)methyl)amino)-3-((trifluoromethyl)sulfonyl)phenyl)sulfonyl)benzamide], the IC50 (RS4;11 cells) was < 20 nM.
For `C[C@H]1CN([C@H]2CC[C@H](CNc3ccc(S(=O)(=O)NC(=O)c4ccc(N5CCN(CC6=C(c7ccc(Cl)cc7)CC(C)(C)CC6)CC5)cc4Oc4cnc5[nH]ccc5c4)cc3[N+](=O)[O-])CC2)CCN1Cc1cc(Br)c2c(c1)C(=O)N(C1CCC(=O)NC1=O)C2` (stereo partly drawn) [BCL-03170, 2-((1H-pyrrolo[2,3-b]pyridin-5-yl)oxy)-N-((4-((((trans)-4-((3S)-4-((7-bromo-2-(2,6-dioxopiperidin-3-yl)-3-oxoisoindolin-5-yl)methyl)-3-methylpiperazin-1-yl)cyclohexyl)methyl)amino)-3-nitrophenyl)sulfonyl)-4-(4-((4′-chloro-5,5-dimethyl-3,4,5,6-tetrahydro-[1,1′-biphenyl]-2-yl)methyl)piperazin-1-yl)benzamide], the IC50 (Molt-4 cells) was < 10 nM.
For `C[C@@H]1CN([C@H]2CC[C@H](CNc3ccc(S(=O)(=O)NC(=O)c4ccc(N5CCN(CC6=C(c7ccc(Cl)cc7)CC(C)(C)CC6)CC5)cc4Oc4cnc5[nH]ccc5c4)cc3[N+](=O)[O-])CC2)CCN1Cc1cc(Br)c2c(c1)C(=O)N(C1CCC(=O)NC1=O)C2` (stereo partly drawn) [BCL-03172, 2-((1H-pyrrolo[2,3-b]pyridin-5-yl)oxy)-N-((4-((((trans)-4-((3R)-4-((7-bromo-2-(2,6-dioxopiperidin-3-yl)-3-oxoisoindolin-5-yl)methyl)-3-methylpiperazin-1-yl)cyclohexyl)methyl)amino)-3-nitrophenyl)sulfonyl)-4-(4-((4′-chloro-5,5-dimethyl-3,4,5,6-tetrahydro-[1,1′-biphenyl]-2-yl)methyl)piperazin-1-yl)benzamide], the IC50 (Molt-4 cells) was < 10 nM.
`C[C@@H]1CN([C@H]2CC[C@@H](CNc3ccc(S(=O)(=O)NC(=O)c4ccc(N5CCN(CC6=C(c7ccc(Cl)cc7)CC(C)(C)CC6)CC5)cc4Oc4cnc5[nH]ccc5c4)cc3[N+](=O)[O-])CC2)CCN1Cc1cc(Br)c2c(c1)C(=O)N(C1CCC(=O)NC1=O)C2` (stereo partly drawn) [BCL-03171, 2-((1H-pyrrolo[2,3-b]pyridin-5-yl)oxy)-N-((4-((((cis)-4-((3R)-4-((7-bromo-2-(2,6-dioxopiperidin-3-yl)-3-oxoisoindolin-5-yl)methyl)-3-methylpiperazin-1-yl)cyclohexyl)methyl)amino)-3-nitrophenyl)sulfonyl)-4-(4-((4′-chloro-5,5-dimethyl-3,4,5,6-tetrahydro-[1,1′-biphenyl]-2-yl)methyl)piperazin-1-yl)benzamide] was tested, and the IC50 (Molt-4 cells) was < 10 nM.
In the case of `CC1(C)CCC(c2ccc(Cl)cc2)=C(CN2CCN(c3ccc(C(=O)NS(=O)(=O)c4ccc(NC[C@H]5CC[C@H](N6CCN(Cc7ccc8c(c7)CN(C7CCC(=O)NC7=O)C8=O)CC6)CC5)c([N+](=O)[O-])c4)cc3)CC2)C1` (stereo partly drawn) [BCL-03181, 4-(4-((4′-chloro-4,4-dimethyl-3,4,5,6-tetrahydro-[1,1′-biphenyl]-2-yl)methyl)piperazin-1-yl)-N-((4-((((trans)-4-(4-((2-(2,6-dioxopiperidin-3-yl)-1-oxoisoindolin-5-yl)methyl)piperazin-1-yl)cyclohexyl)methyl)amino)-3-nitrophenyl)sulfonyl)benzamide], the IC50 (RS4;11 cells) was < 20 nM.
